The source made the active and inactive calls. No cut-off for these calls is given here.

The subject of the experiment is Bacillus subtilis. The experiment is described as follows: Antibacterial activity against Bacillus subtilis […] assessed as growth inhibition by agar disk diffusion method. In kind it is functional, organism-based. (In general: A growth-free zone around the sample is the usual read-out of agar diffusion tests.)

Regarding `CCCCCCCCCCCCCC(=O)N/C=C/c1ccc(O[C@@H]2OC[C@@H](O)[C@H](OC(C)=O)[C@H]2O)cc1`, the result was inactive.

The record behind these values is ChEMBL document CHEMBL6103616, “Isolation and Biosynthesis of Hyellamide, a Glycosylated N-Acyltyrosine Derivative, from the Cyanobacterium Hyella patelloides LEGE 07179” (J Nat Prod, 2025).
